What was measured:
[1] = Unbound fraction in Beagle dog plasma at 1 mg/kg, iv measured after 24 hrs by HPLC-MS analysis; assay type: ADME, organism-based, Canis lupus familiaris
[2] = test system: Klebsiella pneumoniae; assay: Potentiation of imipenem induced antibacterial activity against Klebsiella pneumoniae IHMA599644 harbouring VIM-1 incubated for 18 to 22 hrs imipenem by spectrophotometer based analysis; assay type: functional; conditions: time 18-22 hrs
[3] = biological target: Sodium channel protein type 5 subunit alpha (Homo sapiens, UniProt Q14524); assay: Inhibition of NaV 1.5 channel (unknown origin)
[4] = test system: Pseudomonas aeruginosa; assay: Potentiation of imipenem induced antibacterial activity against isogenic efflux wild type Pseudomonas aeruginosa MB9798 harbouring IMP incubated for 18 to 22 hrs imipenem and beta lactamase inhibitor by spectrophotometer based analysis; assay type: functional; conditions: time 18-22 hrs
[5] = test system: Pseudomonas aeruginosa; assay: Potentiation of imipenem induced antibacterial activity against isogenic efflux deleted mutant Pseudomonas aeruginosa MB9799 harbouring IMP incubated for 18 to 22 hrs imipenem and beta lactamase inhibitor by spectrophotometer based analysis; assay type: functional; conditions: time 18-22 hrs
[6] = biological target: Voltage-gated inwardly rectifying potassium channel KCNH2 (Homo sapiens, UniProt Q12809); assay: Inhibition of human ERG; assay type: toxicity
[7] = test system: Pseudomonas aeruginosa; assay: Efflux ratio of MITC95 for potentiation of imipenem induced antibacterial activity against isogenic efflux wild type Pseudomonas aeruginosa MB9798 harbouring IMP to MITC95 for potentiation of imipenem induced antibacterial activity against isogenic efflux deleted mutant Pseudomonas aeruginosa MB9799 harbouring IMP; assay type: functional
[8] = Inhibition of GST tagged VIM-2 (unknown origin) expressed in Escherichia coli BL21 Star (DE3) competent cells using CCF2-FA as substrate incubated for 2 hrs by fluorescence based analysis
[9] = biological target: Cytochrome P450 2C9 (Homo sapiens, UniProt P11712); assay: Inhibition of CYP2C9 (unknown origin); assay type: ADME
[10] = Clearance in rat at 1 mg/kg, iv measured after 24 hrs by HPLC-MS analysis; assay type: ADME, organism-based; conditions: in vivo
[11] = Inhibition of GST tagged IMP-1 (unknown origin) expressed in Escherichia coli BL21 Star (DE3) competent cells using CCF2-FA as substrate incubated for 2 hrs by fluorescence based analysis
[12] = MRT in Beagle dog at 1 mg/kg, iv measured after 24 hrs by HPLC-MS analysis; assay type: ADME, organism-based, Canis lupus familiaris; conditions: in vivo
[13] = Inhibition of GST tagged VIM-1 (unknown origin) expressed in Escherichia coli BL21 Star (DE3) competent cells using CCF2-FA as substrate incubated for 2 hrs by fluorescence based analysis
[14] = test system: Serratia marcescens; assay: Potentiation of imipenem induced antibacterial activity against Serratia marcescens CL5741 harbouring IMP-1 incubated for 18 to 22 hrs imipenem by spectrophotometer based analysis; assay type: functional; conditions: time 18-22 hrs
[15] = test system: Escherichia coli; assay: Potentiation of imipenem induced antibacterial activity against Escherichia coli CLB30005 harbouring NDM-1 incubated for 18 to 22 hrs in presence of imipenem by spectrophotometer based analysis; assay type: functional; conditions: time 18-22 hrs
[16] = biological target: Voltage-dependent L-type calcium channel subunit alpha-1C (Homo sapiens, UniProt Q13936); assay: Inhibition of Cav1.2 channel (unknown origin)
[17] = Unbound fraction in rat plasma at 1 mg/kg, iv measured after 24 hrs by HPLC-MS analysis; assay type: ADME, organism-based
[18] = Inhibition of GST tagged NDM-1 (unknown origin) expressed in Escherichia coli BL21 Star (DE3) competent cells using CCF2-FA as substrate incubated for 2 hrs by fluorescence based analysis
[19] = MRT in rat at 1 mg/kg, iv measured after 24 hrs by HPLC-MS analysis; assay type: ADME, organism-based; conditions: in vivo
[20] = AUC in rat at 1 mg/kg, iv measured after 24 hrs by HPLC-MS analysis; assay type: ADME, organism-based; conditions: in vivo
[21] = biological target: T1, Cytochrome P450 2C8 (Homo sapiens, UniProt P10632); assay: Inhibition of CYP2C8 (unknown origin); assay type: ADME
T1 sequence (P10632 whole entry): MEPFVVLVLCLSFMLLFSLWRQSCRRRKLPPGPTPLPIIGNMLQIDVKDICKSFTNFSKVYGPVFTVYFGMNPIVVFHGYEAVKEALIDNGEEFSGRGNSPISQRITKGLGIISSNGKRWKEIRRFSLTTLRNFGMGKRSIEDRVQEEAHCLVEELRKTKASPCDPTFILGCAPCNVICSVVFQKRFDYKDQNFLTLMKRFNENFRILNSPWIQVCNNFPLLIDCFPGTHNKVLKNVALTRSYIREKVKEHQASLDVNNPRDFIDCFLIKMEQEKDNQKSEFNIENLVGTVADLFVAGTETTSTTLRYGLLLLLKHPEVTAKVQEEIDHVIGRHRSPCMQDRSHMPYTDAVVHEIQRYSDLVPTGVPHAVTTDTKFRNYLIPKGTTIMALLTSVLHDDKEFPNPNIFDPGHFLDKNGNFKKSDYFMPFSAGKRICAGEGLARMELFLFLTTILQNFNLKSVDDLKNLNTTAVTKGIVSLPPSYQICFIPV

[22] = Volume of distribution at steady state in Beagle dog at 1 mg/kg, iv measured after 24 hrs by HPLC-MS analysis; assay type: ADME, organism-based, Canis lupus familiaris; conditions: in vivo, read-out: Vdss
[23] = Toxicity in Beagle dog assessed as severe adverse effect at 1 mg/kg, iv measured after 24 hrs by HPLC-MS analysis; assay type: organism-based, Canis lupus familiaris; conditions: in vivo
[24] = Cmax in Beagle dog at 1 mg/kg, iv measured after 24 hrs by HPLC-MS analysis; assay type: ADME, organism-based, Canis lupus familiaris; conditions: in vivo
[25] = AUC in Beagle dog at 1 mg/kg, iv measured after 24 hrs by HPLC-MS analysis; assay type: ADME, organism-based, Canis lupus familiaris; conditions: in vivo
[26] = biological target: Cytochrome P450 3A4 (Homo sapiens, UniProt P08684); assay: Inhibition of CYP3A4 (unknown origin); assay type: ADME
[27] = Clearance in Beagle dog at 1 mg/kg, iv measured after 24 hrs by HPLC-MS analysis; assay type: ADME, organism-based, Canis lupus familiaris; conditions: in vivo
[28] = Volume of distribution at steady state in rat at 1 mg/kg, iv measured after 24 hrs by HPLC-MS analysis; assay type: ADME, organism-based; conditions: in vivo, read-out: Vdss
[29] = biological target: Cytochrome P450 2D6 (Homo sapiens, UniProt P10635); assay: Inhibition of CYP2D6 (unknown origin); assay type: ADME
[30] = biological target: Voltage-gated potassium channel, IKs; KCNQ1(Kv7.1)/KCNE1(MinK) (Homo sapiens, UniProt P15382+P51787); assay: Inhibition of KCNQ1/KCNE1 (unknown origin); assay type: protein-complex assay
[31] = Cmax in rat at 1 mg/kg, iv measured after 24 hrs by HPLC-MS analysis; assay type: ADME, organism-based; conditions: in vivo
[32] = Cmax in Wistar rat at 90 mg/kg, iv measured after 24 hrs by HPLC-MS analysis; assay type: ADME, organism-based; conditions: in vivo
[33] = MRT in rat at 5 mg/kg, iv measured after 24 hrs by HPLC-MS analysis; assay type: ADME, organism-based; conditions: in vivo
[34] = Clearance in rat at 5 mg/kg, iv measured after 24 hrs by HPLC-MS analysis; assay type: ADME, organism-based; conditions: in vivo
[35] = Toxicity in Beagle dog assessed as increase in respiration at 1 mg/kg, iv measured after 24 hrs by HPLC-MS analysis; assay type: organism-based, Canis lupus familiaris; conditions: in vivo
[36] = Cmax in rat at 5 mg/kg, iv measured after 24 hrs by HPLC-MS analysis; assay type: ADME, organism-based; conditions: in vivo
[37] = Toxicity in Beagle dog assessed as decrease in activity at 1 mg/kg, iv measured after 24 hrs by HPLC-MS analysis; assay type: organism-based, Canis lupus familiaris; conditions: in vivo
[38] = Unbound fraction in rat plasma at 5 mg/kg, iv measured after 24 hrs by HPLC-MS analysis; assay type: ADME, organism-based
[39] = Volume of distribution at steady state in rat at 5 mg/kg, iv measured after 24 hrs by HPLC-MS analysis; assay type: ADME, organism-based; conditions: in vivo, read-out: Vdss
[40] = Toxicity in Beagle dog assessed as appearance of watery eyes at 1 mg/kg, iv measured after 24 hrs by HPLC-MS analysis; assay type: organism-based, Canis lupus familiaris; conditions: in vivo
[41] = Toxicity in Beagle dog assessed as increase in histamine level in plasma at 1 mg/kg, iv measured upto 24 hrs by HPLC-MS analysis; assay type: organism-based, Canis lupus familiaris; conditions: in vivo
[42] = Toxicity in Beagle dog assessed as vocalization at 1 mg/kg, iv measured after 24 hrs by HPLC-MS analysis; assay type: organism-based, Canis lupus familiaris; conditions: in vivo
[43] = Toxicity in Beagle dog assessed as emesis at 1 mg/kg, iv measured after 24 hrs by HPLC-MS analysis; assay type: organism-based, Canis lupus familiaris; conditions: in vivo
[44] = AUC in rat at 5 mg/kg, iv measured after 24 hrs by HPLC-MS analysis; assay type: ADME, organism-based; conditions: in vivo

Sequence of Cytochrome P450 2C9 (P11712 whole entry): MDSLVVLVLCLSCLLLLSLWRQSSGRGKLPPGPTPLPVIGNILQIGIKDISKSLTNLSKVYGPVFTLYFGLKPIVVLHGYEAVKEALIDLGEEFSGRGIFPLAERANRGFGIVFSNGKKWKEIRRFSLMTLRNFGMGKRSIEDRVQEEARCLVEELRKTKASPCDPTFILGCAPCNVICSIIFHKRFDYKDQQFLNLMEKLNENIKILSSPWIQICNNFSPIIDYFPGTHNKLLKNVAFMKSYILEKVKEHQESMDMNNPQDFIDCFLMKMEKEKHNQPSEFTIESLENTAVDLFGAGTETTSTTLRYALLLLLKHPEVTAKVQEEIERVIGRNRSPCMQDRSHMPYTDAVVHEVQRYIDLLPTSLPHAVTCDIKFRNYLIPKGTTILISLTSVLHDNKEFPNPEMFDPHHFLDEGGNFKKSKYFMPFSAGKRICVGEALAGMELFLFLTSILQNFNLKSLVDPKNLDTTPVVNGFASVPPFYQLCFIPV
Sequence of Sodium channel protein type 5 subunit alpha (Q14524 whole entry): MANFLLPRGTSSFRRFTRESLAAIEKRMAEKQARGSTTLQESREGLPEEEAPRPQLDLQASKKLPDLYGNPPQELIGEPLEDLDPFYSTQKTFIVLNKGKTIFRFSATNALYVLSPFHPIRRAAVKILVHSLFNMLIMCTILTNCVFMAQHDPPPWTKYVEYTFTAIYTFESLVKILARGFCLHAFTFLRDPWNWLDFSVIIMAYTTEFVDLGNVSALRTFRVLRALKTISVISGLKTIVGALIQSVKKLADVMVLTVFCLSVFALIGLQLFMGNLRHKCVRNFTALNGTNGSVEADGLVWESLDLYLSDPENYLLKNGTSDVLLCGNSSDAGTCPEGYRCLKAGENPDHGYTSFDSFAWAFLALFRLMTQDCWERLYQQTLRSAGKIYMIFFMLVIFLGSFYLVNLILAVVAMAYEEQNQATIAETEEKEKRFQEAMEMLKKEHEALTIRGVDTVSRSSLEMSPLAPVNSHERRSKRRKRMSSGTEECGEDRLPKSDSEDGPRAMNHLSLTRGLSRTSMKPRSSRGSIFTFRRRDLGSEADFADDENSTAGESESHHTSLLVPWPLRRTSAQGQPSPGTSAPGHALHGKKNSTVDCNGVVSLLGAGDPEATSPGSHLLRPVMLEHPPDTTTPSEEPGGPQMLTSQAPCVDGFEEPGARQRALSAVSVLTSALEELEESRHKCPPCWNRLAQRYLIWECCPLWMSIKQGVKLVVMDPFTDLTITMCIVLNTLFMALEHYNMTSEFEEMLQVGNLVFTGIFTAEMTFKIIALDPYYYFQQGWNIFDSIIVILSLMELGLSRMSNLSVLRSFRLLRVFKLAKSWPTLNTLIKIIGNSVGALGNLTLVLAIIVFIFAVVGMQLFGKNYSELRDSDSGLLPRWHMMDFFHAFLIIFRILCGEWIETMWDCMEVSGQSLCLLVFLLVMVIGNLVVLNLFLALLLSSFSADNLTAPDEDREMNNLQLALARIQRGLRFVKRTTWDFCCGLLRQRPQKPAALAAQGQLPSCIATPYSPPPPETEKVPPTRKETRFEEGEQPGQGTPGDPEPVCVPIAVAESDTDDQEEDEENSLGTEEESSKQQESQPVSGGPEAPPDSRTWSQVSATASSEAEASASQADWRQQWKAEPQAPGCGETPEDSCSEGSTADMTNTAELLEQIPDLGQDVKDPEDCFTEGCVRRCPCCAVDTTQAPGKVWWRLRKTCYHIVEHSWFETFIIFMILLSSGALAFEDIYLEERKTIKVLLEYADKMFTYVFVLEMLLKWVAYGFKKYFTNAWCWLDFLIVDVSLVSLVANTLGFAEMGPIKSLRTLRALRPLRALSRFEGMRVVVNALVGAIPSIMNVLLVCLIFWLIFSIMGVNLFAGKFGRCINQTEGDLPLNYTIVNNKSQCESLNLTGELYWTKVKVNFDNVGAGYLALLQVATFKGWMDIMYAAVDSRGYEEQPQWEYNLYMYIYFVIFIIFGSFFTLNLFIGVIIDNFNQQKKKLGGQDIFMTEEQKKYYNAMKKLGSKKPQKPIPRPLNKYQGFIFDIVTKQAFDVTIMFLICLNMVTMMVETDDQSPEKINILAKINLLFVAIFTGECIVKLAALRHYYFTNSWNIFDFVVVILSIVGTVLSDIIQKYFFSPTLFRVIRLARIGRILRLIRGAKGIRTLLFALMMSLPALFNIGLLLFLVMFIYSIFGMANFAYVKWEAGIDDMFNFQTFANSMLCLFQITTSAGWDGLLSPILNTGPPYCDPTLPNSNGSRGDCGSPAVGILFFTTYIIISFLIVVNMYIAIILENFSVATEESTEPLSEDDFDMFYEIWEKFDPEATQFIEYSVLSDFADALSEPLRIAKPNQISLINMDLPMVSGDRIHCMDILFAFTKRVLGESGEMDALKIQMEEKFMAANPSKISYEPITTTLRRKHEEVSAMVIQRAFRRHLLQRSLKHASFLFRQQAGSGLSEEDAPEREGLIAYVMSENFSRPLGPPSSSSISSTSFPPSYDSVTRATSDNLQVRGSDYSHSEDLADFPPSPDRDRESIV
Sequence of Voltage-dependent L-type calcium channel subunit alpha-1C (Q13936 whole entry): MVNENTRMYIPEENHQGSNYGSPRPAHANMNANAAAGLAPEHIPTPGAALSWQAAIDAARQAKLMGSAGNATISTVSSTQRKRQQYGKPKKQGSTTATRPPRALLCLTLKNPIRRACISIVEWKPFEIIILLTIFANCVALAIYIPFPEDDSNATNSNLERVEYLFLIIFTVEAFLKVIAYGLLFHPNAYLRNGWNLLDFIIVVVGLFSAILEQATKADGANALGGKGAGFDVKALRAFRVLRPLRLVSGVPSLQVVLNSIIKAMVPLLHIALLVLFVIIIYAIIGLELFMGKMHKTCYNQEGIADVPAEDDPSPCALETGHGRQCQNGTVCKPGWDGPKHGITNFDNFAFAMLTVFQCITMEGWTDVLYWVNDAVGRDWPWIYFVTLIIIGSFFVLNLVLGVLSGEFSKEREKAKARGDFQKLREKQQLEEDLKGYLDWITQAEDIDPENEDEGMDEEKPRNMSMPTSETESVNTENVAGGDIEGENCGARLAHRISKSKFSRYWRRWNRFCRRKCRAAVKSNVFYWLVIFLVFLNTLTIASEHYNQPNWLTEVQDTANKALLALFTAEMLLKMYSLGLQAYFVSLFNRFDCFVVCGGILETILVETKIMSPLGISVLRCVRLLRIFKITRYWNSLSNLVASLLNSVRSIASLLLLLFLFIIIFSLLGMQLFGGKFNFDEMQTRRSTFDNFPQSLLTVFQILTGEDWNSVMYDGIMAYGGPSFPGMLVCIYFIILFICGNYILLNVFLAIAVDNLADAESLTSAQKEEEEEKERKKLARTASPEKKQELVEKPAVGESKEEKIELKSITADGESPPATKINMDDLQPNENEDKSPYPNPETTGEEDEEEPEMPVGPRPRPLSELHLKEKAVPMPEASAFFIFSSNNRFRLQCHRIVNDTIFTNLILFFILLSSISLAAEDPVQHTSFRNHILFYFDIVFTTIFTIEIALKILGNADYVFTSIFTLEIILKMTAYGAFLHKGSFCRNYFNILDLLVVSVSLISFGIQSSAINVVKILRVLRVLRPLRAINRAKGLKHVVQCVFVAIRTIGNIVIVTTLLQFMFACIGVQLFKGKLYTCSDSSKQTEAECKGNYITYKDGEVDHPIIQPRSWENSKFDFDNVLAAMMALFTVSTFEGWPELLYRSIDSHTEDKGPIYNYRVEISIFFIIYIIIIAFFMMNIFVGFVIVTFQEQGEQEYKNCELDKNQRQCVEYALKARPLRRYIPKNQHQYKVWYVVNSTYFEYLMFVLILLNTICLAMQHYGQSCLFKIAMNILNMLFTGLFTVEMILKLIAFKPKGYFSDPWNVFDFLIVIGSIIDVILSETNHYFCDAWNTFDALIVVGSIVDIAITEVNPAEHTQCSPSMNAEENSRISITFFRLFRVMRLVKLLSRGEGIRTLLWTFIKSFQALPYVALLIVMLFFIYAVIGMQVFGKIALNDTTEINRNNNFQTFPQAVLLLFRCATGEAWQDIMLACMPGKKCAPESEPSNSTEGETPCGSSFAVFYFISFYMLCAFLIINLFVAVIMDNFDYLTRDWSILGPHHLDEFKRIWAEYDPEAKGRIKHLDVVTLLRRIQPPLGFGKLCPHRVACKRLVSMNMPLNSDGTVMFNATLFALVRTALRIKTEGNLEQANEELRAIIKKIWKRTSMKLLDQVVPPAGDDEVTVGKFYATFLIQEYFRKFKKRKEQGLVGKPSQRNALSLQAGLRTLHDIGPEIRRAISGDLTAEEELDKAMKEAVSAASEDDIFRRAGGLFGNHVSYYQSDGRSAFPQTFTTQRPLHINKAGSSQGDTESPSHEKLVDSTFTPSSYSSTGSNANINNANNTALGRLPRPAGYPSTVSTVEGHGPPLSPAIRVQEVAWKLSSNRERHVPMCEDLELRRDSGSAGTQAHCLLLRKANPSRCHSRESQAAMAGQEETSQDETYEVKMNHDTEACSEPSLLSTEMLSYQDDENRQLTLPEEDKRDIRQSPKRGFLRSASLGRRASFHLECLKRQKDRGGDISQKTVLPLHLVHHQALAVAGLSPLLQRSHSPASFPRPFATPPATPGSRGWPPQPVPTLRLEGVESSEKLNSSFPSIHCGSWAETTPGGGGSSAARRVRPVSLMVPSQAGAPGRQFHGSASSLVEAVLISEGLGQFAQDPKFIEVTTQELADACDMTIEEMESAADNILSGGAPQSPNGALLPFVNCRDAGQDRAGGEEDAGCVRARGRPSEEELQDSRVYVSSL

| Compound | MITC95 [2] | MITC95 [4] | MITC95 [5] | Ratio [7] | IC50 [8] | clearance [10] | IC50 [11] | IC50 [13] | MITC95 [14] | MITC95 [15] | fraction unbound at 24 h [17] | IC50 [18] | MRT [19] | AUC at 24 h [20] | Cmax [24] | Vd [28] | Cmax [31] | further results |
| --- | --- | --- | --- | --- | --- | --- | --- | --- | --- | --- | --- | --- | --- | --- | --- | --- | --- | --- |
| Nc1nc2cccc(-c3ccc(C(F)(F)F)c(S(N)(=O)=O)c3-c3nnn[nH]3)c2[nH]1 | 1.6 µM | 25 µM | 0.78 µM | 32 | 0.0013 µM | 9.6 mL/min/kg | 0.0038 µM | 0.0003 µM | 0.8 µM | 0.4 µM | 0.065 | 0.0001 µM | 0.66 h | 4.1 µM·h | 9 µM | 0.38 L/kg | 10.8 µM | fraction unbound at 24 h [1]: 0.26; IC50 [3]: > 30 µM; IC50 [6]: > 30 µM; IC50 [9]: > 50 µM; MRT [12]: 1.72 h; IC50 [16]: > 30 µM; IC50 [21]: > 50 µM; Vd [22]: 0.94 L/kg; Activity [23]: Non-Toxic; AUC at 24 h [25]: 4.34 µM·h; IC50 [26]: > 50 µM; clearance [27]: 9.1 mL/min/kg; IC50 [29]: > 50 µM; IC50 [30]: > 30 µM |
| Nc1ccc(-c2ccc(CC3CCNCC3)c(S(N)(=O)=O)c2-c2nn[nH]n2)cn1 | 4.2 µM | 50 µM | 12.5 µM | 4 | 0.14 µM | 3.5 mL/min/kg | 0.164 µM | 0.025 µM | 6.3 µM | 0.6 µM | 0.47 | 0.012 µM | 1.21 h | 11.7 µM·h |  | 0.25 L/kg | 16.3 µM | Cmax [32]: 791 µM |
| NS(=O)(=O)c1c(C[C@H]2CC[C@H](N)CC2)ccc(-c2ccc(C3CNC3)cc2)c1-c1nn[nH]n1 | 1.6 µM | 18 µM | 1.6 µM | 11 |  |  | 0.043 µM | 0.001 µM | 3.1 µM | 0.8 µM |  | 0.004 µM |  |  | 9.3 µM |  |  | MRT [33]: 3.13 h; clearance [34]: 2.2 mL/min/kg; Activity [35]: Toxic; Cmax [36]: 84.3 µM; Activity [37]: Toxic; fraction unbound at 24 h [38]: 0.42; Vd [39]: 0.39 L/kg; Activity [40]: Toxic; Activity [41]: Toxic; Activity [42]: Toxic; Activity [43]: Toxic; AUC at 24 h [44]: 83.7 µM·h |
